These results are taken from PubChem BioAssay (NCI).

Some test systems named below: OVCAR-4 ovarian; HCT-15 colon; A549 NSCLC; KM12 colon; SF-295 CNS; EKVX NSCLC; HOP-62 NSCLC; SF-268 CNS; SR leukemia; COLO 205 colon.
Common to all, as to assay: NCI tumour cell line growth inhibition, 48 h

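Protocol summary: plate cells (96-well), add compound at 5 concentrations, incubate 48 h, interpolate endpoints linearly. GI50 = concentration required for 50% inhibition of growth. Definition used: TGI = concentration required for complete inhibition of growth.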

With `COc1ccc2c(c1)CC[C@@H]1[C@@H]2CC[C@]2(C)c3c(cc(C(=O)c4ccccc4)c4sccc34)C[C@@H]12`, the GI50 is 76.8 µM in the experiment on OVCAR-4 ovarian; over 100 µM in the experiment on HCT-15 colon; over 100 µM in the experiment with A549 NSCLC; over 100 µM with KM12 colon; over 100 µM with SF-295 CNS; over 100 µM with EKVX NSCLC. The GI50 in the experiment on HOP-62 NSCLC, in the experiment with SF-268 CNS, in the experiment on SR leukemia and in the experiment with COLO 205 colon was over 100 µM each time. Further, the TGI with OVCAR-4 ovarian, in the experiment on HCT-15 colon, with A549 NSCLC, in the experiment on KM12 colon, in the experiment with SF-295 CNS and in the experiment with EKVX NSCLC was over 100 µM each time. Also, the TGI in the experiment on HOP-62 NSCLC, in the experiment on SF-268 CNS, in the experiment on SR leukemia and with COLO 205 colon was over 100 µM in each case.

Regarding `Cn1c(-c2ccccc2)c/c(=N\NS(C)(=O)=O)c2cc(S(=O)(=O)O)ccc21`, the TGI with OVCAR-4 ovarian, with HCT-15 colon, in the experiment with A549 NSCLC, in the experiment on KM12 colon, in the experiment on SF-295 CNS and with EKVX NSCLC was over 100 µM each time. In addition, the TGI with HOP-62 NSCLC, in the experiment on SF-268 CNS, in the experiment with SR leukemia and in the experiment with COLO 205 colon was over 100 µM in each case.

Consider `COC(=O)c1cc(O)ccc1NC(=O)c1ccc(O)cc1`, for which the TGI with OVCAR-4 ovarian, with HCT-15 colon, in the experiment on A549 NSCLC, with KM12 colon, in the experiment with SF-295 CNS and with EKVX NSCLC was over 100 µM each time. Further, the TGI in the experiment with HOP-62 NSCLC, in the experiment with SF-268 CNS, in the experiment with SR leukemia and with COLO 205 colon was over 100 µM each time.

Turning to `CSc1ccc2c(c1)C(=O)c1c-2n(CCCN=[N+]=[N-])c(=O)c2cc([N+](=O)[O-])ccc12`, the GI50 was over 100 µM with OVCAR-4 ovarian; over 87.1 µM in the experiment with HCT-15 colon; 3.25 µM in the experiment with A549 NSCLC; 0.553 µM in the experiment on SF-295 CNS; over 100 µM in the experiment on EKVX NSCLC; 0.623 µM with HOP-62 NSCLC. The GI50 with SF-268 CNS was 1.98 µM; in the experiment with SR leukemia, 0.2 µM; with COLO 205 colon, over 23.7 µM. The TGI with OVCAR-4 ovarian is over 100 µM; with HCT-15 colon, over 100 µM; with A549 NSCLC, over 100 µM; in the experiment with KM12 colon it was over 100 µM; in the experiment on SF-295 CNS, over 52.1 µM; with EKVX NSCLC, over 100 µM. Moreover, the TGI was 29 µM in the experiment with HOP-62 NSCLC, over 100 µM in the experiment with SF-268 CNS, 5.8 µM with SR leukemia and over 100 µM with COLO 205 colon.

`O=S(=O)(c1ccccc1)C1CN(Cc2ccccc2)CCN(Cc2ccccc2)C1`: the TGI in the experiment on OVCAR-4 ovarian was over 72.6 µM; in the experiment with HCT-15 colon, over 100 µM; with A549 NSCLC, over 100 µM; in the experiment with KM12 colon, over 100 µM; in the experiment with SF-295 CNS it was over 100 µM; with EKVX NSCLC, over 100 µM. Further, the TGI in the experiment on HOP-62 NSCLC was over 100 µM; in the experiment on SF-268 CNS, 97.7 µM; with SR leukemia, over 100 µM; with COLO 205 colon, over 100 µM.

Regarding `O=CNc1ccc2c(c1)Cc1cc([N+](=O)[O-])ccc1-2`, the GI50 with OVCAR-4 ovarian is over 65.5 µM; with HCT-15 colon it was 2.86 µM; in the experiment with A549 NSCLC, 5.75 µM; in the experiment on KM12 colon it was 0.715 µM; in the experiment on SF-295 CNS, 0.981 µM; in the experiment on EKVX NSCLC, 0.657 µM. Besides, the GI50 in the experiment with HOP-62 NSCLC is 8.71 µM; in the experiment with SF-268 CNS, 5.02 µM; in the experiment with SR leukemia it was 2.17 µM; in the experiment on COLO 205 colon it was 2.87 µM. The TGI was over 100 µM in the experiment on OVCAR-4 ovarian; over 100 µM with HCT-15 colon; over 77.4 µM in the experiment on A549 NSCLC; over 100 µM in the experiment on KM12 colon; over 100 µM in the experiment on SF-295 CNS; over 100 µM with EKVX NSCLC. For the same molecule, the TGI in the experiment on HOP-62 NSCLC, in the experiment with SF-268 CNS, in the experiment with SR leukemia and in the experiment on COLO 205 colon was over 100 µM in each case.

For the molecule `N=C1N=Nc2nc(C3(c4nc5n(c4O)C(=N)N=N5)Cc4ccccc4C3=O)c(O)n21` (stereo not given), the GI50 in the experiment on OVCAR-4 ovarian is over 100 µM. The TGI in the experiment with OVCAR-4 ovarian, in the experiment on HCT-15 colon, in the experiment with A549 NSCLC, in the experiment with KM12 colon, with SF-295 CNS and with EKVX NSCLC was over 100 µM throughout. For the same molecule, the TGI in the experiment with HOP-62 NSCLC, with SF-268 CNS, in the experiment with SR leukemia and in the experiment on COLO 205 colon was over 100 µM throughout.

With `COc1cc2c(cc1C)NC(=O)/C2=C/c1c(C)nc2sc(C)cn12`, the GI50 in the experiment on OVCAR-4 ovarian is over 100 µM; in the experiment with HCT-15 colon it was over 100 µM; in the experiment on A549 NSCLC it was 60.8 µM; in the experiment with KM12 colon it was 40.7 µM; in the experiment with SF-295 CNS, 45.2 µM; in the experiment on EKVX NSCLC, 49.2 µM. In addition, the GI50 was over 100 µM with HOP-62 NSCLC, 85.3 µM in the experiment on SF-268 CNS, 22.6 µM in the experiment with SR leukemia and 73.6 µM with COLO 205 colon. Also, the TGI with OVCAR-4 ovarian, in the experiment with HCT-15 colon, with A549 NSCLC, in the experiment on KM12 colon, with SF-295 CNS and with EKVX NSCLC was over 100 µM in each case. Further, the TGI in the experiment on HOP-62 NSCLC, in the experiment on SF-268 CNS, with SR leukemia and in the experiment on COLO 205 colon was over 100 µM in each case.

Turning to `COc1ccc2oc(-c3ccc(Cl)cc3)c(N3CCN(C)CC3)c2c1`, the GI50 in the experiment on OVCAR-4 ovarian is 2.12 µM; in the experiment on HCT-15 colon, 1.62 µM; in the experiment on A549 NSCLC, 1.83 µM; in the experiment with KM12 colon, 1.64 µM; in the experiment on SF-295 CNS, 2.06 µM; in the experiment with EKVX NSCLC, 0.603 µM. In addition, the GI50 was 1.82 µM with HOP-62 NSCLC, 2.36 µM in the experiment with SF-268 CNS, 2.27 µM in the experiment with SR leukemia and 1.68 µM in the experiment on COLO 205 colon. The TGI came out at 7.22 µM in the experiment with OVCAR-4 ovarian; 3.24 µM in the experiment with HCT-15 colon; 3.94 µM in the experiment on A549 NSCLC; 3.27 µM in the experiment with KM12 colon; 5.12 µM in the experiment on SF-295 CNS; 2.47 µM in the experiment on EKVX NSCLC. Further, the TGI in the experiment with HOP-62 NSCLC is 3.86 µM; in the experiment with SF-268 CNS it was 5.61 µM; in the experiment on SR leukemia it was 8.12 µM; with COLO 205 colon it was 3.62 µM.
